{"source": "ChEMBL document CHEMBL1255311", "about": "“Evaluation of a 2-pyridone, KRQ-10018, against Mycobacterium tuberculosis in vitro and in vivo” (Antimicrob Agents Chemother, 2008)", "key": {"[1]": {"test_system": "Mycobacterium tuberculosis", "experiment": "Antimicrobial activity against Mycobacterium tuberculosis Erdman injected into gamma interferon gene knockout C57BL/6 mouse assessed as bacterial load in lung of mouse at 300 mg/kg measured 9 days post drug treatment", "assay_type": "functional"}, "[2]": {"test_system": "Mycobacterium tuberculosis", "experiment": "Antimicrobial activity against Mycobacterium tuberculosis Erdman injected into gamma interferon gene knockout C57BL/6 mouse assessed as bacterial load in spleen of mouse at 100 mg/kg measured 9 days post drug treatment", "assay_type": "functional"}, "[3]": {"test_system": "Mycobacterium tuberculosis", "experiment": "Antimicrobial activity against Mycobacterium tuberculosis Erdman injected into gamma interferon gene knockout C57BL/6 mouse assessed as bacterial load in spleen of mouse at 300 mg/kg measured 9 days post drug treatment", "assay_type": "functional"}, "[4]": {"experiment": "Oral bioavailability in mouse at 300 mg/kg, po measured after 30 mins", "assay_type": "ADME, organism-based", "settings": "in vivo, read-out: Drug uptake"}, "[5]": {"experiment": "Oral bioavailability in mouse at 300 mg/kg, po measured after 2 hrs", "assay_type": "ADME, organism-based", "settings": "in vivo, read-out: Drug uptake"}, "[6]": {"test_system": "Mycobacterium tuberculosis", "experiment": "Antimicrobial activity against Mycobacterium tuberculosis H37Rv at assessed as growth inhibition at […] following 24 days oxygen depletion by Wayne method relative to control", "assay_type": "functional", "design": "scale not given: the % may be the effect or the level left"}, "Staphylococcus aureus": {"test_system": "Staphylococcus aureus", "experiment": "Antimicrobial activity against Staphylococcus aureus ATCC 29213 by broth macrodilution method", "assay_type": "functional"}, "Escherichia coli": {"test_system": "Escherichia coli", "experiment": "Antimicrobial activity against Escherichia coli ATCC 25922 by broth macrodilution method", "assay_type": "functional"}, "Pseudomonas aeruginosa": {"test_system": "Pseudomonas aeruginosa", "experiment": "Antimicrobial activity against Pseudomonas aeruginosa ATCC 27853 by broth macrodilution method", "assay_type": "functional"}, "[7]": {"test_system": "Mycobacterium tuberculosis", "experiment": "Antimicrobial activity against Mycobacterium tuberculosis H37Rv by macrodilution method", "assay_type": "functional"}, "[8]": {"test_system": "Mycobacterium tuberculosis", "experiment": "Antimicrobial activity against Mycobacterium tuberculosis H37Rv by alamar blue assay", "assay_type": "functional"}, "[9]": {"test_system": "Mycobacterium tuberculosis", "experiment": "Antimicrobial activity against Mycobacterium tuberculosis Erdman injected into gamma interferon gene knockout C57BL/6 mouse assessed as bacterial load in lung of mouse at 100 mg/kg measured 9 days post drug treatment", "assay_type": "functional"}, "[10]": {"test_system": "Mycobacterium tuberculosis", "experiment": "Antimicrobial activity against Mycobacterium tuberculosis Erdman injected into gamma interferon gene knockout C57BL/6 mouse assessed as bacterial load in lung of mouse at 25 mg/kg measured 9 days post drug treatment", "assay_type": "functional"}, "[11]": {"test_system": "Mycobacterium tuberculosis", "experiment": "Antimicrobial activity against Mycobacterium tuberculosis Erdman injected into gamma interferon gene knockout C57BL/6 mouse assessed as bacterial load in spleen of mouse at 25 mg/kg measured 9 days post drug treatment", "assay_type": "functional"}, "[12]": {"experiment": "Oral bioavailability in mouse at 25 mg/kg, po measured after 30 mins", "assay_type": "ADME, organism-based", "settings": "in vivo, read-out: Drug uptake"}, "[13]": {"experiment": "Oral bioavailability in mouse at 25 mg/kg, po measured after 2 hrs", "assay_type": "ADME, organism-based", "settings": "in vivo, read-out: Drug uptake"}, "[14]": {"settings": "Mycobacterium tuberculosis, H37Rv, read-out: MIC"}}}
{"smiles": "Cc1c(N2CC3=CCCN[C@H]3C2)c(F)cn2c(=O)c(C(=O)O)cc(C3CC3)c12", "values": [{"measurement": "log10cfu", "setting": "[1]", "value": 6.13}, {"measurement": "log10cfu", "setting": "[2]", "value": 5.92}, {"measurement": "log10cfu", "setting": "[3]", "value": 4.91}, {"measurement": "concentration at 0.5 h", "setting": "[4]", "value": "> 13100", "unit": "ng/mL"}, {"measurement": "concentration at 2 h", "setting": "[5]", "value": 1640, "unit": "ng/mL"}, {"measurement": "Activity", "setting": "[6]", "value": 1.7, "unit": "%"}, {"measurement": "MIC", "setting": "Staphylococcus aureus", "value": "< 0.015", "unit": "µg/mL"}, {"measurement": "MIC", "setting": "Escherichia coli", "value": "< 0.015", "unit": "µg/mL"}, {"measurement": "MIC", "setting": "Pseudomonas aeruginosa", "value": "< 0.015", "unit": "µg/mL"}, {"measurement": "MIC", "setting": "[7]", "value": 0.041, "unit": "µg/mL"}, {"measurement": "MIC", "setting": "[8]; [14]", "value": "< 0.025", "unit": "µg/mL"}, {"measurement": "log10cfu", "setting": "[9]", "value": 7.25}]}
{"smiles": "O=C(O)c1cn(C2CC2)c2cc(N3CCNCC3)c(F)cc2c1=O", "note": "[CIPROFLOXACIN]", "values": [{"measurement": "Activity", "setting": "[6]", "value": 83, "unit": "%"}]}
{"smiles": "COc1c(N2CCNC(C)C2)c(F)cc2c(=O)c(C(=O)O)cn(C3CC3)c12", "note": "(configuration not stated) [GATIFLOXACIN]", "values": [{"measurement": "Activity", "setting": "[6]", "value": 41, "unit": "%"}]}
{"smiles": "NNC(=O)c1ccncc1", "note": "[ISONIAZID]", "values": [{"measurement": "log10cfu", "setting": "[10]", "value": 5.8}, {"measurement": "log10cfu", "setting": "[11]", "value": 3.14}, {"measurement": "concentration at 0.5 h", "setting": "[12]", "value": "> 13100", "unit": "ng/mL"}, {"measurement": "concentration at 2 h", "setting": "[13]", "value": 1640, "unit": "ng/mL"}, {"measurement": "Activity", "setting": "[6]", "value": 70, "unit": "%"}, {"measurement": "MIC", "setting": "[8]", "value": 0.041, "unit": "µg/mL"}, {"measurement": "MIC", "setting": "[8]; [14]", "value": 0.048, "unit": "µg/mL"}]}
{"smiles": "Cc1ncc([N+](=O)[O-])n1CCO", "note": "[METRONIDAZOLE]", "values": [{"measurement": "Activity", "setting": "[6]", "value": 36, "unit": "%"}]}
{"smiles": "COc1c(N2C[C@@H]3CCCN[C@@H]3C2)c(F)cc2c(=O)c(C(=O)O)cn(C3CC3)c12", "note": "[MOXIFLOXACIN]", "values": [{"measurement": "log10cfu", "setting": "[1]", "value": 2.37}, {"measurement": "log10cfu", "setting": "[3]", "value": 2.43}, {"measurement": "concentration at 0.5 h", "setting": "[4]", "value": 19600, "unit": "ng/mL"}, {"measurement": "concentration at 2 h", "setting": "[5]", "value": 9600, "unit": "ng/mL"}, {"measurement": "Activity", "setting": "[6]", "value": 2.5, "unit": "%"}, {"measurement": "MIC", "setting": "[8]", "value": 0.1, "unit": "µg/mL"}, {"measurement": "MIC", "setting": "[8]; [14]", "value": 0.12, "unit": "µg/mL"}]}
{"smiles": "CO[C@H]1/C=C/O[C@@]2(C)Oc3c(C)c(O)c4c(O)c(c(/C=N/N5CCN(C)CC5)c(O)c4c3C2=O)NC(=O)/C(C)=C\\C=C\\[C@H](C)[C@H](O)[C@@H](C)[C@@H](O)[C@@H](C)[C@H](OC(C)=O)[C@@H]1C", "note": "[RIFAMPIN]", "values": [{"measurement": "Activity", "setting": "[6]", "value": 5.6, "unit": "%"}]}
{"smiles": "CO[C@H]1/C=C/O[C@@]2(C)Oc3c(C)c(O)c4c(O)c(c(/C=N/N5CCN(C6CCCC6)CC5)c(O)c4c3C2=O)NC(=O)/C(C)=C\\C=C\\[C@H](C)[C@H](O)[C@@H](C)[C@@H](O)[C@@H](C)[C@H](OC(C)=O)[C@@H]1C", "note": "[RIFAPENTINE]", "values": [{"measurement": "Activity", "setting": "[6]", "value": 2.5, "unit": "%"}]}
{"smiles": "CN[C@@H]1[C@H](O[C@H]2[C@H](O[C@H]3[C@H](O)[C@@H](O)[C@H](N=C(N)N)[C@@H](O)[C@@H]3N=C(N)N)O[C@@H](C)[C@]2(O)C=O)O[C@@H](CO)[C@H](O)[C@H]1O", "note": "[STREPTOMYCIN]", "values": [{"measurement": "Activity", "setting": "[6]", "value": 4.2, "unit": "%"}]}
